Laboratory results published in US20190100549A1, “FLAVONOIDE-TYPE COMPOUNDS BEARING AN O-RHAMNOSYL RESIDUE” (Universitaet Hamburg, priority 2016, published 2019).
Values joined by “and” are separate entries in the source; they are usually repeats but may differ in a detail not shown here. Equal values may be shown once. Read-outs that look alike come from different tables or passages of the source.

Tests used:
PGE2 = PGE2 release in stimulated NHEK (ELISA); format: cell-based, human; conditions: Homo sapiens, NHEK; PMA 1 μg/ml; 100 μM
Experimental: (§1) NHEK were pre-incubated for 24 h with the test compounds. The medium was replaced with the NHEK culture medium containing the inflammatory inducers (PMA or Poly I:C) and incubated for another 24 hours. Positive and negative controls ran in parallel. At the endpoint the culture supernatants were quantified of secreted IL-8, PGE2 and TNF-α by means of ELISA.

IL-8 = IL-8 release in stimulated NHEK (ELISA); format: cell-based, human; conditions: Homo sapiens, NHEK
Experimental: as §1

[1] = Water solubility of naringenin-5-rhamnoside (0.2 μm filtered solutions, HPLC); format: physicochemical; conditions: read-out: maximum water solubility
Experimental: FIG. 1: Determination of solubility of naringenin-5-O-α-L-rhamnoside (NR1) in water. Defined concentrations of NR1 were 0.22 μm-filtered before injection to HPLC. Soluble concentrations were calculated from peak areas by determined regression curves.
FIG. 1 illustrates the amounts of Naringenin-5-rhamnoside recaptured from a RP18 HPLC-column after loading of a 0.2 μm filtered solution containing defined amounts up to 25 mM of the same. Amounts were calculated from a regression curve.

TNF-α = TNF-α release in stimulated NHEK (ELISA); format: cell-based, human; conditions: Homo sapiens, NHEK, poly(I:C), read-out: TNFα Inhibition %
Experimental: as §1

[2] = tested on: normal human epidermal keratinocytes (NHEK); test: Cytotoxicity on NHEK monolayer cultures (MTT reduction assay and morphological observation); format: cell-based; conditions: for Viability (%): single values, listed as Nar-5-Rha
Experimental: To determine the cytotoxicity of flavonoid-5-O-α-L-rhamnosides tests were performed versus their aglycon derivatives in cell monolayer cultures. For this purpose concentrations ranging from 1 μM to 250 μM were chosen. The viability of normal human epidermal keratinocytes (NHEK) was twice evaluated by a MTT reduction assay and morphological observation with a microscope. NHEK were grown at 37° C. and 5% CO2 aeration in Keratinocyte-SFM medium supplemented with epidermal growth factor (EGF) at 0.25 ng/mL, pituitary extract (PE) at 25 μg/mL and gentamycin (25 μg/mL) for 24 h and were used at the 3rd passage. For cytotoxicity testing, pre-incubated NHEK were given fresh culture medium containing a specific concentration of test compound and incubated for 24 h. After a medium change at same test concentration cells were incubated a further 24 h until viability was determined. Test results are given in Table B2 and illustrated in FIG. 10.

[3] = tested on: lipid peroxides (C11-fluor) in NHEK cells; test: Protection against UV-induced lipid peroxide in NHEK (C11-fluor probe, flow cytometry); format: cell-based, human
Experimental: Pre-incubated NHEK were incubated with the test compound for 24 h. Then the specific fluorescence probe for the measurement of hydrogen peroxide (DHR) or lipid peroxides (C11-fluor) was added and incubated for 45 min. Irradiation occurred with in H2O2 determination UVB at 180 mJ/cm^2 (+UVA at 2839 mJ/cm^2) or UVB at 240 mJ/cm^2 (+UVA at 3538 mJ/cm^2) in lipid peroxide, respectively, using a SOL500 Sun Simulator lamp. After irradiation the cells were post-incubated for 30 min before flow-cytometry analysis.

C[C@@H]1O[C@@H](Oc2cc(O)cc3c2C(=O)CC(c2ccc(O)cc2)O3)[C@H](O)[C@H](O)[C@H]1O (mixture of isomers) [NR1, Naringenin-5-O-α-L-rhamnoside]
inhibition at 100 µM (PGE2): 21%
inhibition at 100 µM (IL-8; PMA): 12%
inhibition at 100 µM (IL-8; poly(I:C)): 14%
solubility ([1]; equivalent of 10 mmol/L): ~4200 µg/mL
solubility [1]: ~10 mM
inhibition at 100 µM (TNF-α): 8%
Viability (%) Mean ([2]; 1 μM): 101%
Viability (%) ([2]; 1 μM): 91% and 111%
Viability (%) Mean ([2]; 2.5 μM): 93%
Viability (%) ([2]; 2.5 μM): 92% and 93%
Viability (%) Mean ([2]; 5 μM): 86%
Viability (%) ([2]; 5 μM): 85% and 88%
Viability (%) Mean ([2]; 10 μM): 97%
Viability (%) ([2]; 10 μM): 94% and 100%
Viability (%) Mean ([2]; 25 μM): 95%
Viability (%) ([2]; 25 μM): 92% and 98%
Viability (%) Mean ([2]; 50 μM): 84%
Viability (%) ([2]; 50 μM): 78% and 91%
Viability (%) Mean ([2]; 100 μM): 86%
Viability (%) ([2]; 100 μM): 82% and 90%
Viability (%) Mean ([2]; 250 μM): 83%
Viability (%) ([2]; 250 μM): 79% and 87%
anti-oxidative function on lipid peroxides (in words) [3]: anti-oxidative function
